Columns and labels:
[1] = tested on: empty vector-transfected parental 1321N1 cells; assay: Ca2+ mobilization in empty vector-transfected parental 1321N1 cells; assay type: cell-based, human; settings: 10 μM; data not shown
[2] = tested on: Nr4a1, Nr4a2, Nr4a3, c-fos mRNA in NRCMs; assay: mRNA expression analysis of Nr4a1, Nr4a2, Nr4a3 and c-fos in NRCMs; assay type: cell-based, rat; settings: for induction of Nr4a1 mRNA at 2 h versus isoproterenol alone: 30 μM Compound 89 or 100 μM ATP in the presence of 10 μM isoproterenol
Method: Neonatal rat cardiomyocytes were seeded in a collagen I-coated 96-well plate, then cultured and maintained for a week before the ligand stimulation assay. […] After stimulation, cDNA samples were synthesized from lysates using TaqMan Gene Expression Cells-to-Ct kits (Thermo Fisher Scientific) according to the manufacturer’s instructions, followed by quantitative real-time polymerase chain reaction analysis using a Prism 7900HT sequence detector (Thermo Fisher Scientific). Thermal cycling parameters were 2 min at 50 °C and 10 min at 95 °C, followed by 40 cycles at 95 °C for 15 sec and 60 °C for 1 min. The mRNA levels were analysed with the comparative Ct method (2^−ΔΔCt) using Rplp0 as the housekeeping gene. The TaqMan Gene Expression assays (Thermo Fisher Scientific) used herein were as follows: Rn01533237_m1 (Nr4a1), Rn00570936_m1 (Nr4a2), Rn01354012_m1 (Nr4a3), Rn02396759_m1 (c-fos), and Rn03302271_gH (Rplp0).

[3] = tested on: neonatal rat cardiomyocytes (NRCMs); assay: Isoproterenol-induced cardiac hypertrophy in NRCMs; assay type: cell-based; settings: 10 μM isoproterenol
Method: Neonatal rat cardiomyocytes were seeded in a 96-well collagen I plate at a density of 5000 cells/well. They were incubated overnight and then transferred to a serum-free medium for one day. Next, the cells were treated with the indicated concentrations of compounds and 10 μM isoproterenol, and then incubated for 2 days. To quantify cardiomyocyte hypertrophy via filamentous actin staining, NRCMs were fixed with 4% paraformaldehyde (Wako) and permeabilized with 0.1% Triton X-100 (MP Biomedicals, France), followed by blocking with 1% bovine serum albumin (Wako) and staining with 2 μM phalloidin–fluorescein isothiocyanate (phalloidin-FITC; Sigma-Aldrich, Japan) and 10 μM Hoechst 33258 (Dojindo). Quantification of FITC-fluorescence intensity and cell number was performed using an IN Cell Analyzer 6000 (GE Healthcare Japan). The signals from obtained images were quantitated by means of a customized image analysis algorithm using the IN Cell Developer Toolbox (GE Healthcare Japan). Hypertrophic scores were calculated as the product of FITC-fluorescence intensity and cell area per cell as programmed by GE Healthcare technical support experts.

[4] = target: T1, P2Y2 in neonatal rat cardiomyocytes (NRCMs) (Rattus norvegicus, UniProt P41232); assay: cell-based
T1 sequence (P41232 whole entry): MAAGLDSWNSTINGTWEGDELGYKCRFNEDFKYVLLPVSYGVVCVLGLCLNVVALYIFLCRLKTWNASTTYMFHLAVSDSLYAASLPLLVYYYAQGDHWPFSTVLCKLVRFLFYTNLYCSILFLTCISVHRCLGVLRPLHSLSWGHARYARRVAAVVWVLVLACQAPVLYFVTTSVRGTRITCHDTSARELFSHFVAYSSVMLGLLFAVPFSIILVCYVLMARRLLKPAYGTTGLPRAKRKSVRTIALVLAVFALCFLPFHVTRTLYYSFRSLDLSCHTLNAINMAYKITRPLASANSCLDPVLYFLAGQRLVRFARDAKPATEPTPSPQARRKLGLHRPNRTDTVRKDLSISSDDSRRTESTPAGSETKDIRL

mouse P2Y2 receptors = target: T2, mouse P2Y2 receptors (Mus musculus, UniProt P35383); assay: FLIPR Ca2+ mobilization assay in mP2Y2-1321N1 cells; assay type: cell-based
T2 construct: expressed in transfected cells
T2 sequence (P35383 whole entry): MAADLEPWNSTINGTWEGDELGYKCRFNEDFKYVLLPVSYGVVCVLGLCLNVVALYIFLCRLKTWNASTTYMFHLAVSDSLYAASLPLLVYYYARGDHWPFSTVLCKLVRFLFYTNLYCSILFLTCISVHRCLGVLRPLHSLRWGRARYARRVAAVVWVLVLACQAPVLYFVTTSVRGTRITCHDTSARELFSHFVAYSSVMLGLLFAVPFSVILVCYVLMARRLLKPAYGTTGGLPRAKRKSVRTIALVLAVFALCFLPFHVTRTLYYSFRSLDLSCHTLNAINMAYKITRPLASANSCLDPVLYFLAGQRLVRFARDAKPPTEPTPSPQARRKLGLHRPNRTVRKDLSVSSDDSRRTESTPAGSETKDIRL

human P2Y1 receptor = target: T3, human P2Y1 receptor (Homo sapiens, UniProt P47900); assay: FLIPR Ca2+ mobilization assay in transiently hP2Y1-expressing 1321N1 cells; assay type: cell-based; settings: at up to 30 µM
T3 construct: expressed in transfected cells; host or cells: 1321N1 human astrocytoma cells, pcDNA3.1(+) plasmid, transient
T3 sequence (P47900 whole entry): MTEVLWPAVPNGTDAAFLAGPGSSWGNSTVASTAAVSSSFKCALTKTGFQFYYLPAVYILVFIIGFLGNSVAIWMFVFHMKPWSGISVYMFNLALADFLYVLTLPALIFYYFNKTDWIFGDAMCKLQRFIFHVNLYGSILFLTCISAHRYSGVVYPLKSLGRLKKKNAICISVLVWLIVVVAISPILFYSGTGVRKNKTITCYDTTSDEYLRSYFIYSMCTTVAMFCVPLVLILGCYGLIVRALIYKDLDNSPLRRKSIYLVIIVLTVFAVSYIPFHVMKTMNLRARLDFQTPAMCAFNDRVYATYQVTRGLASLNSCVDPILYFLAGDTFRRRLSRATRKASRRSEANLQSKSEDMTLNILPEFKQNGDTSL

human P2Y4 receptor = target: T4, human P2Y4 receptor (Homo sapiens, UniProt P51582); assay: FLIPR Ca2+ mobilization assay in transiently hP2Y4-expressing 1321N1 cells; assay type: cell-based; settings: at up to 30 µM
T4 construct: expressed in transfected cells; host or cells: 1321N1 human astrocytoma cells, pcDNA3.1(+) plasmid, transient
T4 sequence (P51582 whole entry): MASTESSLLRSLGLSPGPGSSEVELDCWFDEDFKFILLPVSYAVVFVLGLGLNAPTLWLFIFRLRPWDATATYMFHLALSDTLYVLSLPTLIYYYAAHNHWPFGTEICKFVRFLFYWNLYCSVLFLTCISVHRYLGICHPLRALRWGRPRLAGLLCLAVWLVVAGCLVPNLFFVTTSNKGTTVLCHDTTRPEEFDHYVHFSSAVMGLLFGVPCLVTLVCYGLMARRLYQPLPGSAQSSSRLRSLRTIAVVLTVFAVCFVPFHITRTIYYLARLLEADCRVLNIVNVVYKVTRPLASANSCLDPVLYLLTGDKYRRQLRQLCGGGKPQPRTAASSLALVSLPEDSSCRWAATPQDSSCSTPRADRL

human P2Y6 receptor = target: T5, human P2Y6 receptor (Homo sapiens, UniProt Q15077); assay: FLIPR Ca2+ mobilization assay in transiently hP2Y6-expressing 1321N1 cells; assay type: cell-based; settings: at up to 30 µM
T5 construct: expressed in transfected cells; host or cells: 1321N1 human astrocytoma cells, pcDNA3.1(+) plasmid, transient
T5 sequence (Q15077 whole entry): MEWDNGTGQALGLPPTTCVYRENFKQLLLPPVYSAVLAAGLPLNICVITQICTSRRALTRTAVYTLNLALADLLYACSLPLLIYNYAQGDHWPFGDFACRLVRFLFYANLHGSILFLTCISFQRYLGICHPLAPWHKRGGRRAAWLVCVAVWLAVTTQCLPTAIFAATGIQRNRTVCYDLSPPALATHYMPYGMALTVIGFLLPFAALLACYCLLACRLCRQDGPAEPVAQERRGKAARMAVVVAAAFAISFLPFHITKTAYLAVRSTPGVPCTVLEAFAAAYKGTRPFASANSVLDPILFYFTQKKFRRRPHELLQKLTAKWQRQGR

human P2Y11 receptor = target: T6, human P2Y11 receptor (Homo sapiens, UniProt Q96G91); assay: FLIPR Ca2+ mobilization assay in transiently hP2Y11-expressing 1321N1 cells; assay type: cell-based; settings: at up to 30 µM
T6 construct: expressed in transfected cells; host or cells: 1321N1 human astrocytoma cells, pcDNA3.1(+) plasmid, transient
T6 sequence (Q96G91 1-374): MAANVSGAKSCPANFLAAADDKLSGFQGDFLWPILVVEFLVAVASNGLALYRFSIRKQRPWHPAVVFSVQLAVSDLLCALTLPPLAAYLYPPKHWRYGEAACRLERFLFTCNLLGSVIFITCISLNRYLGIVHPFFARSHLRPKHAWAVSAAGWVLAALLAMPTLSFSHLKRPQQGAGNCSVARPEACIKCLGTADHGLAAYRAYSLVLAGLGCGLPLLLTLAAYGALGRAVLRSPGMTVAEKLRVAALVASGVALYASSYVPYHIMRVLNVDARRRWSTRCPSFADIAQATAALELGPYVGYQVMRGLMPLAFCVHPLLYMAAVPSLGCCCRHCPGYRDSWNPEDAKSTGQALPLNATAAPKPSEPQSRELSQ

human P2Y12 receptor = target: T7, human P2Y12 receptor (Homo sapiens, UniProt Q9H244); assay: cAMP accumulation assay in hP2Y12-1321N1 cells; assay type: cell-based; settings: at up to 30 µM
T7 construct: expressed in transfected cells
T7 sequence (Q9H244 whole entry): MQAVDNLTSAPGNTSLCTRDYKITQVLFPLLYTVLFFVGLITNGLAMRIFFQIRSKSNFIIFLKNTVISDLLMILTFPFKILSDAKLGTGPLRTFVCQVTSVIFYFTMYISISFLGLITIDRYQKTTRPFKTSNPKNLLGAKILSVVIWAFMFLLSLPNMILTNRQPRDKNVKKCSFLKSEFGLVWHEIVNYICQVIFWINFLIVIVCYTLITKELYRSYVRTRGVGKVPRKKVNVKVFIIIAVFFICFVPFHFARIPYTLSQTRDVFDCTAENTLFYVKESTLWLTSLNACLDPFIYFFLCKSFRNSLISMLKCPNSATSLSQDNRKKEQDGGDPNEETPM

β-adrenergic receptor = assay: cAMP signalling in parental 1321N1 cells; assay type: cell-based, human
[5] = target: T1, P2Y2 in neonatal rat cardiomyocytes (NRCMs); settings: without ATP
human P2Y2 receptors = human P2Y2 receptors (Homo sapiens, UniProt P41231); assay: cell-based
Chain of human P2Y2 receptors (P41231 whole entry): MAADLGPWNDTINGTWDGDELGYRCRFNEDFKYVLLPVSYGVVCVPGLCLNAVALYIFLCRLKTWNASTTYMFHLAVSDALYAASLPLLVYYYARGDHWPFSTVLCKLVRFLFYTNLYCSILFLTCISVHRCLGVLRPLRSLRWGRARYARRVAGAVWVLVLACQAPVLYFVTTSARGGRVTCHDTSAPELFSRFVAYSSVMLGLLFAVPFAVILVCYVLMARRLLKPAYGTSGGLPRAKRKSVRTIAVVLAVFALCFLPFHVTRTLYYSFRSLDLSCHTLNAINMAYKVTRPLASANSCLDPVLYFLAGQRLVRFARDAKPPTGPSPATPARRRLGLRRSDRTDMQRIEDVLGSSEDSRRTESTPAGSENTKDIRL

[6] = read-out: extrapolated maximum efficacy with respect to 10 μM ATP

With `O=c1ccn([C@@H]2O[C@H](COP(=O)(O)OP(=O)(O)O)[C@@H](O)[C@H]2O)c(=O)[nH]1` [UDP, uridine-5′-diphosphate] the “activity in empty vector-transfected parental 1321N1 cells” value [1] was “lacked activity”.
In the case of `Nc1ncnc2c1ncn2[C@@H]1O[C@H](COP(=O)(O)OP(=O)(O)O)[C@@H](O)[C@H]1O` [ADP, adenosine-5′-diphosphate], the “activity in empty vector-transfected parental 1321N1 cells” value [1] is reported as “lacked activity”.
`O=c1ccn([C@@H]2O[C@H](COP(=O)(O)OP(=O)(O)OP(=O)(O)O)[C@@H](O)[C@H]2O)c(=O)[nH]1` [UTP, uridine-5′-triphosphate] was tested, and the “activity in empty vector-transfected parental 1321N1 cells” value [1] was “lacked activity”.
For `Nc1ncnc2c1ncn2[C@@H]1O[C@H](COP(=O)(O)OP(=O)(O)OP(=O)(O)O)[C@@H](O)[C@H]1O` [ATP, adenosine-5′-triphosphate, reference compound], the “expression of all Nr4a genes” value ([2]; 10 μM, steadily after 30 min) was “increased”, the “induction of Nr4a1 mRNA at 2 h versus isoproterenol alone” value [2] was “did not affect induction” and the “effect on isoproterenol-induced cardiac hypertrophy (hypertrophic score)” value ([3]; 10 and 100 μM, P = 0.568) was “no significant effects”. The “activity in empty vector-transfected parental 1321N1 cells” value [1] was “lacked activity” and the EC50 ([4]; EC50 for ATP, NRCMs, in the absence of Compound 89) was 2.6 µM.
`CCN(Cc1ccc(F)cc1)Cc1cc(=O)c2ccc(C)c(C)c2[nH]1` [Compound 89, 2-((ethyl(4-fluorobenzyl)amino)methyl)-7,8-dimethylquinolin-4(1H)-one] was tested, and the Emax (mouse P2Y2 receptors; [6]) was 50.9%, the EC50 (mouse P2Y2 receptors; stably-expressing mP2Y2-1321N1 cells (Fig. 1b), read-out: EC50 (potency), agonistic activity) was 2.7 µM and the “agonistic activity against hP2Y1” value (human P2Y1 receptor) was “lacked agonistic activity”. The “agonistic activity against hP2Y4” value (human P2Y4 receptor) was “lacked agonistic activity”, the “agonistic activity against hP2Y6” value (human P2Y6 receptor) was “lacked agonistic activity” and the “agonistic activity against hP2Y11” value (human P2Y11 receptor) was “lacked agonistic activity”. The “agonistic activity against hP2Y12” value (human P2Y12 receptor) was “lacked agonistic activity”, the “induction of Nr4a1 mRNA at 2 h versus isoproterenol alone” value [2] was “greater” and the “effect on ATP-induced gene expression changes” value ([2]; co-administration at 10 and 30 μM with ATP, concentration-dependent) was “enhanced”. For the same compound, the “changes in gene expression (Nr4a1, Nr4a2, Nr4a3, c-fos) by compound alone” value ([2]; without ATP, up to 90 min) was “did not induce any changes in gene expression”, the “attenuation of hypertrophy after 48 h of treatment” value ([3]; 30 μM) was “Complete attenuation” and the “effect on isoproterenol-induced cardiac hypertrophy (hypertrophic score)” value ([3]; 1 to 30 μM, concentration-dependent) was “attenuated”. The “effect on β-adrenergic receptor-mediated cAMP signalling” value (β-adrenergic receptor) was “does not affect”, the intrinsic agonistic activity [5] was “no intrinsic agonistic activity” and the EC50 (human P2Y2 receptors; EC50 (potency), agonistic activity, transiently-expressing hP2Y2-1321N1 cells (Fig. 1b)) was 10.5 µM. The EC50 (human P2Y2 receptors; EC50 for Compound 89, hP2Y2 stably-expressing 1321N1 cells, in the absence of ATP) was 53.9 µM, the EC50 (human P2Y2 receptors; EC50 for Compound 89, hP2Y2 stably-expressing 1321N1 cells, in the presence of 10 nM ATP) was 2.5 µM and the Emax (human P2Y2 receptors; [6]) was 65.8%. For the same compound, the EC50 ([4]; EC50 for Compound 89, NRCMs, in the presence of 1 μM ATP) was 1.3 µM and the EC50 ([4]; EC50 for Compound 89, NRCMs, in the presence of 30 μM ATP) was 0.11 µM.
With `CC(C)NCC(O)c1ccc(O)c(O)c1` (centres unmarked) [isoproterenol, reference compound] the “induction of Nr4a1 mRNA at 2 h versus vehicle” value ([2]; 10 μM isoproterenol, P = 5 × 10^−4) was “significantly induced”.
